Laboratory results: patent publication US10703764B2, “Benzopiperazine compositions as BET bromodomain inhibitors” (FORMA Therapeutics, Inc., priority 2013, dated 2020)
Like-named read-outs stand apart in the source and are kept apart here.

Legend:
BRD4 BD2 = target: T1, BRD4 BD2 (Homo sapiens, UniProt O60885); assay: AlphaScreen binding assay, BRD4 Bromodomain 2
T1 construct: made in house
Outline: (§1)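 Compound dilution series were mixed with His-tagged BRD4 bromodomain and biotinylated tetra-acetylated H4 (1-21) peptide at pH 7.3 (BD1 and peptide at 50 nM, BD2 and peptide at 100 nM). Donor and acceptor beads were then added, and plates were equilibrated at least 1 h before reading. IC50 values were fitted with a four-parameter logistic model.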

MV4-11 cells = assay: Oncology cell growth assay (3-day proliferation, CellTiter-Glo); format: cell-based; conditions: Homo sapiens, AML cell line MV4-11, 72 hours, compounds grouped by IC50 range, read-out: MV4-11 IC50 (inhibition of proliferation, gIC50)
Outline: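 72 h, 37° C, 5% CO2; MV4-11, 3000 cells/well, RPMI 1640 + 10% FBS. Compound final 10, 3.3, 1.1, 0.37, 0.12, 0.041, 0.013, 0.0045 μM. Readout CellTiter-Glo luminescence; gIC50 by 4-parameter logistic fit, normalised to DMSO and no-cell background.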

BRD4 BD1 = target: T2, BRD4 BD1 (Homo sapiens, UniProt O60885); assay: AlphaScreen binding assay, BRD4 Bromodomain 1
T2 construct: made in house
Outline: as §1

Row | Compound | IC50 (BRD4 BD2) [nM] | IC50 (MV4-11 cells; MV4-11, 72 h) [nM] | IC50 (BRD4 BD1) [nM] | IC50 (MV4-11 cells) [nM]
1 | CC(=O)N1c2ccc(-c3cnn(C4CC4)c3)cc2N(c2nn(C)c3ccncc23)C[C@@H]1C [Example I-186, 1-[(2S)-6-(1-cyclopropyl-1H-pyrazol-4-yl)-2-methyl-4-{1-methyl-1H-pyrazolo[4,3-c]pyridin-3-yl}-1,2,3,4-tetrahydroquinoxalin-1-yl]ethan-1-one] | 50 to 500 | 100 to 500 | 100 to 1000 | 
2 | CC(=O)N1c2ccc(-c3cnn(C4CC4)c3)cc2N(c2nn(C)c3cccnc23)C[C@@H]1C [Example I-187, 1-[(2S)-6-(1-cyclopropyl-1H-pyrazol-4-yl)-2-methyl-4-{1-methyl-1H-pyrazolo[4,3-b]pyridin-3-yl}-1,2,3,4-tetrahydroquinoxalin-1-yl]ethan-1-one] | 50 to 500 | > 500 | 1000 to 10000 | 
3 | CC(=O)N1c2ccc(-c3cnn(CCO)c3)cc2N(c2nn(C)c3cc(F)ccc23)C[C@@H]1C [Example I-188, 1-[(2S)-4-(6-fluoro-1-methyl-1H-indazol-3-yl)-6-[1-(2-hydroxyethyl)-1H-pyrazol-4-yl]-2-methyl-1,2,3,4-tetrahydroquinoxalin-1-yl]ethan-1-one] | < 50 | 100 to 500 | 100 to 1000 | 
4 | CC(=O)N1c2ccc(-c3cnn(CCO)c3)cc2N(c2nn(C)c3ccc(F)cc23)C[C@@H]1C [Example I-189, 1-[(2S)-4-(5-fluoro-1-methyl-1H-indazol-3-yl)-6-[1-(2-hydroxyethyl)-1H-pyrazol-4-yl]-2-methyl-1,2,3,4-tetrahydroquinoxalin-1-yl]ethan-1-one] | 50 to 500 | 100 to 500 | 1000 to 10000 | 
5 | CC(=O)N1c2ccc(-c3cnn(CCO)c3)cc2N(c2nn(C)c3cccc(F)c23)C[C@@H]1C [Example I-190, 1-[(2S)-4-(4-fluoro-1-methyl-1H-indazol-3-yl)-6-[1-(2-hydroxyethyl)-1H-pyrazol-4-yl]-2-methyl-1,2,3,4-tetrahydroquinoxalin-1-yl]ethan-1-one] | < 50 | 100 to 500 | 100 to 1000 | 
6 | CC(=O)N1c2ccc(-c3cnn(C4CCNCC4)c3)cc2N(C(=O)Oc2ccc(F)cc2F)C[C@@H]1C [Example I-191, 2,4-difluorophenyl (S)-4-acetyl-3-methyl-7-(1-(piperidin-4-yl)-1H-pyrazol-4-yl)-3,4-dihydroquinoxaline-1(2H)-carboxylate] | < 50 |  | 100 to 1000 | 100 to 500
7 | CNC(=O)N1c2ncc(-c3cnn(C4CC4)c3)cc2N(C(=O)OC(C)C)C[C@@H]1C [Example I-194, (S)-isopropyl 7-(1-cyclopropyl-1H-pyrazol-4-yl)-3-methyl-4-(methylcarbamoyl)-3,4-dihydropyrido[2,3-b]pyrazine-1(2H)-carboxylate] | 50 to 500 |  | 1000 to 10000 | > 500
8 | CC(=O)N1c2cc([N+](=O)[O-])c(-c3cnn(C4CC4)c3)cc2N(C(=O)OC(C)C)C[C@@H]1C [Example I-195, isopropyl (S)-4-acetyl-7-(1-cyclopropyl-1H-pyrazol-4-yl)-3-methyl-6-nitro-3,4-dihydroquinoxaline-1(2H)-carboxylate] | > 500 | > 500 | 100 to 1000 | 
9 | CC(=O)N1c2cc(F)c(-c3ccc(S(C)(=O)=O)cc3)cc2N(C(=O)OC(C)C)C[C@@H]1C [Example I-196, Isopropyl (S)-4-acetyl-6-fluoro-3-methyl-7-(4-(methylsulfonyl)phenyl)-3,4-dihydroquinoxaline-1(2H)-carboxylate] | > 500 | > 500 | 1000 to 10000 | 
10 | CC(=O)Nc1cc2c(cc1-c1ccc(S(C)(=O)=O)cc1)N(C(=O)OC(C)C)C[C@H](C)N2C(C)=O [Example I-197, Isopropyl (S)-6-acetamido-4-acetyl-3-methyl-7-(4-(methylsulfonyl)phenyl)-3,4-dihydroquinoxaline-1(2H)-carboxylate] | > 500 | > 500 | 1000 to 10000 | 
11 | COC(=O)Nc1cc2c(cc1-c1ccc(S(C)(=O)=O)cc1)N(C(=O)OC(C)C)C[C@H](C)N2C(C)=O [Example I-198, Isopropyl (S)-4-acetyl-6-((methoxycarbonyl)amino)-3-methyl-7-(4-(methylsulfonyl)phenyl)-3,4-dihydroquinoxaline-1 (2H)-carboxylate] | > 500 | > 500 | 1000 to 10000 | 
12 | COc1cc2c(cc1-c1ccc(S(C)(=O)=O)cc1)N(C(=O)OC(C)C)C[C@H](C)N2C(C)=O [Example I-199, Isopropyl (S)-4-acetyl-6-methoxy-3-methyl-7-(4-(methylsulfonyl)phenyl)-3,4-dihydroquinoxaline-1(2H)-carboxylate] | > 500 | > 500 | 1000 to 10000 | 
13 | CC(=O)Nc1ccc2c(c1)N(C(C)=O)[C@@H](C)CN2C(=O)OC(C)C [Example I-200, Isopropyl (S)-6-acetamido-4-acetyl-3-methyl-3,4-dihydroquinoxaline-1(2H)-carboxylate] | 50 to 500 | > 500 | 1000 to 10000 | 
14 | CC(=O)N1c2cc(NS(C)(=O)=O)ccc2N(C(=O)OC(C)C)C[C@@H]1C [Example I-201, Isopropyl (S)-4-acetyl-3-methyl-6-(methylsulfonamido)-3,4-dihydro quinoxaline-1(2H)-carboxylate] | > 500 | > 500 | > 10000 | 
15 | COC(=O)Nc1ccc2c(c1)N(C(C)=O)[C@@H](C)CN2C(=O)OC(C)C [Example I-202, Isopropyl (S)-4-acetyl-6-((methoxycarbonyl)amino)-3-methyl-3,4-dihydro quinoxaline-1(2H)-carboxylate] | > 500 | > 500 | > 10000 | 
16 | CC(=O)Nc1cc2c(cc1Br)N(C(=O)OC(C)C)C[C@H](C)N2C(C)=O [Example I-203, Isopropyl (S)-6-acetamido-4-acetyl-7-bromo-3-methyl-3,4-dihydro quinoxaline-1(2H)-carboxylate] | > 500 | > 500 | 1000 to 10000 | 
17 | COC(=O)Nc1cc2c(cc1-c1cnn(C3CC3)c1)N(C(=O)OC(C)C)C[C@H](C)N2C(C)=O [Example I-204, Isopropyl (S)-4-acetyl-7-(1-cyclopropyl-1H-pyrazol-4-yl)-6-((methoxycarbonyl)amino)-3-methyl-3,4-dihydroquinoxaline-1(2H)-carboxylate] | 50 to 500 | > 500 | 100 to 1000 | 

Now from value to molecule, other results behind:

Row | IC50 (BRD4 BD2) [nM] | IC50 (MV4-11 cells; MV4-11, 72 h) [nM] | IC50 (BRD4 BD1) [nM] | Compound | IC50 (MV4-11 cells) [nM]
18 | 50 to 500 | > 500 | 100 to 1000 | CC(=O)Nc1cc2c(cc1-c1cnn(CC(C)(C)O)c1)N(C(=O)OC(C)C)C[C@H](C)N2C(C)=O [Example I-205, Isopropyl (S)-6-acetamido-4-acetyl-7-(1-(2-hydroxy-2-methylpropyl)-1H-pyrazol-4-yl)-3-methyl-3,4-dihydroquinoxaline-1(2H)-carboxylate] | 
19 | < 50 | 100 to 500 | 100 to 1000 | CC(=O)N1c2cc(N)c(-c3cnn(C4CC4)c3)cc2N(C(=O)OC(C)C)C[C@@H]1C [Example I-206, Isopropyl (S)-4-acetyl-6-amino-7-(1-cyclopropyl-1H-pyrazol-4-yl)-3-methyl-3,4-dihydroquinoxaline-1(2H)-carboxylate] | 
20 | 50 to 500 | > 500 | 100 to 1000 | CC(=O)N1c2cc(F)c(-c3cnn(C4CC4)c3)cc2N(C(=O)OC(C)C)C[C@@H]1C [Example I-207, Isopropyl (S)-4-acetyl-7-(1-cyclopropyl-1H-pyrazol-4-yl)-6-fluoro-3-methyl-3,4-dihydroquinoxaline-1(2H)-carboxylate] | 
21 | > 500 | > 500 | 1000 to 10000 | CC(=O)N1c2cc(Cl)c(-c3cnn(C4CC4)c3)cc2N(C(=O)OC(C)C)C[C@@H]1C [Example I-208, Isopropyl (S)-4-acetyl-6-chloro-7-(1-cyclopropyl-1H-pyrazol-4-yl)-3-methyl-3,4-dihydroquinoxaline-1 (2H)-carboxylate] | 
22 | > 500 | > 500 | 1000 to 10000 | CC(=O)N1c2cc(Br)c(-c3cnn(C4CC4)c3)cc2N(C(=O)OC(C)C)C[C@@H]1C [Example I-209, Isopropyl (S)-4-acetyl-6-bromo-7-(1-cyclopropyl-1H-pyrazol-4-yl)-3-methyl-3,4-dihydroquinoxaline-1(2H)-carboxylate] | 
23 | > 500 | > 500 | 1000 to 10000 | COc1cc2c(cc1-c1cnn(C3CC3)c1)N(C(=O)OC(C)C)C[C@H](C)N2C(C)=O [Example I-210, Isopropyl (S)-4-acetyl-7-(1-cyclopropyl-1H-pyrazol-4-yl)-6-methoxy-3-methyl-3,4-dihydroquinoxaline-1(2H)-carboxylate] | 
24 | > 500 | > 500 | 100 to 1000 | CC(=O)N1c2cc(C#N)c(-c3cnn(C4CC4)c3)cc2N(C(=O)OC(C)C)C[C@@H]1C [Example I-211, Isopropyl (S)-4-acetyl-6-cyano-7-(1-cyclopropyl-1H-pyrazol-4-yl)-3-methyl-3,4-dihydroquinoxaline-1(2H)-carboxylate] | 
25 | 50 to 500 | 100 to 500 | 100 to 1000 | CC(=O)N1c2cc(C(N)=O)c(-c3cnn(C4CC4)c3)cc2N(C(=O)OC(C)C)C[C@@H]1C [Example I-212, Isopropyl (S)-4-acetyl-6-carbamoyl-7-(1-cyclopropyl-1H-pyrazol-4-yl)-3-methyl-3,4-dihydroquinoxaline-1(2H)-carboxylate] | 
